From US6737383B1, “Herbicidal oxadiazolidines” (priority 1999, dated 2004)

Tests used:
[1] = system: pigweed; assay: Test B pre/postemergence pigweed; format: in vivo, Amaranthus retroflexus
How it was run: (§1)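 Test chemicals in a non-phytotoxic solvent mixture with surfactant were sprayed preemergence onto planted seeds and postemergence onto plants 2 to 18 cm tall (1- to 4-leaf stage). After twelve to sixteen days in a greenhouse, injury was visually rated against untreated controls from 0 (no effect) to 10 (complete control).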

[2] = system: surinam grass; assay: Test B pre/postemergence surinam grass; format: in vivo, Brachiaria decumbens
How it was run: as §1

[3] = system: blackgrass; assay: Test B pre/postemergence blackgrass; format: in vivo, Alopecurus myosuroides
How it was run: as §1

[4] = system: purple nutsedge; assay: Test B pre/postemergence purple nutsedge; format: in vivo, Cyperus rotundus
How it was run: as §1

[5] = system: corn; assay: Test B pre/postemergence corn; format: in vivo, Zea mays
How it was run: as §1

[6] = system: smallflower flatsedge; assay: Test B flood test smallflower flatsedge; format: in vivo, Cyperus difformis
How it was run: (§2)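 Each value is a visual injury score relative to controls, with 10 meaning complete control and 0 no effect. Evaluation took place twelve to sixteen days after the 2-leaf-stage plants were treated and kept in the greenhouse.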

[7] = system: soybean; assay: Test B pre/postemergence soybean; format: in vivo, Glycine max
How it was run: as §1

[8] = system: wheat; assay: Test B pre/postemergence wheat; format: in vivo, Triticum aestivum
How it was run: as §1

[9] = system: cocklebur; assay: Test B pre/postemergence cocklebur; format: in vivo, Xanthium strumarium
How it was run: as §1

[10] = system: bedstraw; assay: Test B pre/postemergence bedstraw; format: in vivo, Galium aparine
How it was run: as §1

[11] = system: wild oat; assay: Test B pre/postemergence wild oat; format: in vivo, Avena fatua
How it was run: as §1

[12] = system: bamyardgrass; assay: Test B flood test barnyardgrass; format: in vivo, Echinochloa crus-galli
How it was run: as §2

[13] = system: rape; assay: Test B pre/postemergence rape; format: in vivo, Brassica napus
How it was run: as §1

[14] = system: velvetleaf; assay: Test B pre/postemergence velvetleaf; format: in vivo, Abutilon theophrasti
How it was run: as §1

[15] = system: sugar beet; assay: Test B pre/postemergence sugar beet; format: in vivo, Beta vulgaris
How it was run: as §1

[16] = system: crabgrass; assay: Test B pre/postemergence crabgrass; format: in vivo, Digitaria sanguinalis
How it was run: as §1

[17] = Preemergence, Rate 62 g/ha, scale of 0 to 10 where 0 is no effect and 10 is complete control
[18] = Preemergence, Rate 250 g/ha, scale of 0 to 10 where 0 is no effect and 10 is complete control
[19] = Preemergence, Rate 500 g/ha, scale of 0 to 10 where 0 is no effect and 10 is complete control
[20] = Rate 62 g/ha, Postemergence, scale 0 to 10 (0 no effect, 10 complete control)
[21] = Rate 125 g/ha, Postemergence, scale of 0 to 10 where 0 is no effect and 10 is complete control
[22] = Rate 250 g/ha, Postemergence, scale of 0 to 10 where 0 is no effect and 10 is complete control
[23] = Rate 500 g/ha, Postemergence, scale 0 to 10, 0 no effect, 10 complete control
[24] = Rate 62 g/ha, headed Pre-emergence (flood test species), scale 0 to 10 (0 no effect, 10 complete control)
[25] = Rate 125 g/ha, Pre-emergence, flood test species, scale 0 to 10 where 0 is no effect and 10 is complete control
[26] = Rate 250 g/ha, Pre-emergence, flood-test species, scale 0 to 10, 0 is no effect, 10 is complete control
[27] = Rate 500 g/ha, Pre-emergence, flood test species, scale 0 to 10 (0 no effect, 10 complete control)

SMILES: CC(C)N(C(=O)n1oc(=O)n(C2CCCCO2)c1=O)c1ccc(F)cc1 (stereo not drawn) [Compound 311]
- Redroot pigweed plant response rating [1, 17]: 0
- Redroot pigweed plant response rating (0 to 10 scale) ([1]; Preemergence, Rate 125 g/ha): 0
- Redroot pigweed plant response rating [1, 18]: 0
- Redroot pigweed plant response rating [1, 19]: 0
- Redroot pigweed plant response rating [1, 20]: 0
- Redroot pigweed plant response rating [1, 21]: 0
- Plant response rating, Redroot pigweed [1, 22]: 0
- B. signalgrass plant response rating [2, 17]: 0
- B. signalgrass plant response rating (0 to 10 scale, 0 is no effect, 10 is complete control) ([2]; Preemergence, Rate 125 g/ha): 0
- B. signalgrass plant response rating [2, 18]: 0
- B. signalgrass plant response rating [2, 19]: 0
- B. signalgrass plant response rating [2, 20]: 0
- B. signalgrass plant response rating [2, 21]: 0
- Plant response rating, B. signalgrass [2, 22]: 0
- B. signalgrass plant response rating [2, 23]: 0
- Blackgrass plant response rating [3, 17]: 0
- Blackgrass plant response rating (0 to 10 scale) ([3]; Preemergence, Rate 125 g/ha): 0
- Blackgrass plant response rating [3, 18]: 0
- Blackgrass plant response rating [3, 19]: 0
- Blackgrass plant response rating [3, 20]: 0
- Blackgrass plant response rating [3, 21]: 0
- Plant response rating, Blackgrass [3, 22]: 0
- Blackgrass plant response rating [3, 23]: 0
- Nutsedge plant response rating [4, 17]: 0
- Nutsedge plant response rating (0 to 10 scale) ([4]; Preemergence, Rate 125 g/ha): 0
- Nutsedge plant response rating [4, 18]: 0
- Nutsedge plant response rating [4, 19]: 0
- Nutsedge plant response rating [4, 20]: 0
- Nutsedge plant response rating [4, 21]: 0
- Plant response rating, Nutsedge [4, 22]: 0
- Corn plant response rating [5, 17]: 0
- Corn plant response rating (0 to 10 scale) ([5]; Preemergence, Rate 125 g/ha): 0
- Corn plant response rating [5, 18]: 0
- Corn plant response rating [5, 19]: 0
- Corn plant response rating [5, 20]: 0
- Corn plant response rating [5, 21]: 0
- Plant response rating, Corn [5, 22]: 0
- Corn plant response rating [5, 23]: 0
- S. Flatsedge plant response rating [6, 24]: 0
- S. Flatsedge plant response rating [6, 25]: 0
- S. Flatsedge plant response rating [6, 26]: 0
- S. Flatsedge plant response rating [6, 27]: 0
- Soybean plant response rating [7, 17]: 0
- Soybean plant response rating (0 to 10 scale) ([7]; Preemergence, Rate 125 g/ha): 0
- Soybean plant response rating [7, 18]: 0
- Soybean plant response rating [7, 19]: 0
- Soybean plant response rating [7, 20]: 2
- Soybean plant response rating [7, 21]: 2
- Plant response rating, Soybean [7, 22]: 3
- Wheat plant response rating [8, 17]: 0
- Wheat plant response rating (0 to 10 scale) ([8]; Preemergence, Rate 125 g/ha): 0
- Wheat plant response rating [8, 18]: 0
- Wheat plant response rating [8, 19]: 0
- Wheat plant response rating [8, 20]: 0
- Wheat plant response rating [8, 21]: 0
- Plant response rating, Wheat [8, 22]: 0
- Cocklebur plant response rating [9, 17]: 0
- Cocklebur plant response rating (0 to 10 scale) ([9]; Preemergence, Rate 125 g/ha): 0
- Cocklebur plant response rating [9, 18]: 0
- Cocklebur plant response rating [9, 19]: 0
- Cocklebur plant response rating [9, 20]: 0
- Cocklebur plant response rating [9, 21]: 0
- Plant response rating, Cocklebur [9, 22]: 0
- Cocklebur plant response rating [9, 23]: 0
- Bedstraw plant response rating [10, 17]: 0
- Bedstraw plant response rating (0 to 10 scale) ([10]; Preemergence, Rate 125 g/ha): 0
- Bedstraw plant response rating [10, 18]: 0
- Bedstraw plant response rating [10, 19]: 0
- Bedstraw plant response rating [10, 20]: 0
- Bedstraw plant response rating [10, 21]: 0
- Plant response rating, Bedstraw [10, 22]: 0
- Bedstraw plant response rating [10, 23]: 2
- Wild oats plant response rating [11, 17]: 0
- Wild oats plant response rating (0 to 10 scale) ([11]; Preemergence, Rate 125 g/ha): 0
- Wild oats plant response rating [11, 18]: 0
- Wild oats plant response rating [11, 19]: 0
- Wild oats plant response rating [11, 20]: 0
- Wild oats plant response rating [11, 21]: 0
- Plant response rating, Wild oats [11, 22]: 0
- Barnyardgrass plant response rating [12, 24]: 0
- Barnyardgrass plant response rating [12, 25]: 0
- Barnyardgrass plant response rating [12, 26]: 0
- Barnyardgrass plant response rating [12, 27]: 0
- Rape plant response rating [13, 17]: 0
- Rape plant response rating (0 to 10 scale) ([13]; Preemergence, Rate 125 g/ha): 0
- Rape plant response rating [13, 18]: 0
- Rape plant response rating [13, 19]: 0
- Rape plant response rating [13, 20]: 0
- Rape plant response rating [13, 21]: 0
- Plant response rating, Rape [13, 22]: 0
- Velvetleaf plant response rating [14, 17]: 0
- Velvetleaf plant response rating (0 to 10 scale) ([14]; Preemergence, Rate 125 g/ha): 0
- Velvetleaf plant response rating [14, 18]: 0
- Velvetleaf plant response rating [14, 19]: 0
- Velvetleaf plant response rating [14, 20]: 0
- Velvetleaf plant response rating [14, 21]: 0
- Plant response rating, Velvetleaf [14, 22]: 0
- Sugarbeets plant response rating [15, 17]: 0
- Sugarbeets plant response rating (0 to 10 scale) ([15]; Preemergence, Rate 125 g/ha): 0
- Sugarbeets plant response rating [15, 18]: 0
- Sugarbeets plant response rating [15, 19]: 0
- Sugarbeets plant response rating [15, 20]: 0
- Sugarbeets plant response rating [15, 21]: 0
- Plant response rating, Sugarbeets [15, 22]: 0
- Crabgrass plant response rating [16, 17]: 0
- Crabgrass plant response rating (0 to 10 scale) ([16]; Preemergence, Rate 125 g/ha): 0
- Crabgrass plant response rating [16, 18]: 0
- Crabgrass plant response rating [16, 19]: 0
- Crabgrass plant response rating [16, 20]: 0
- Crabgrass plant response rating [16, 21]: 0
- Plant response rating, Crabgrass [16, 22]: 0
